Reference: patent publication US20260207618A1, “PYRIMIDINE CARBOXAMIDE COMPOUNDS” (Acrivon Therapeutics, Inc., priority 2022, published 2026)

Tests used:
[1] = molecular target: T1, recombinant human Wee1A kinase (Homo sapiens, UniProt P30291); assay: LanthaScreen Europium (Eu) Kinase Binding Assay, Wee1A kinase (TR-FRET tracer displacement); settings: 30 nM tracer 178, 5 nM Wee1A kinase, 60 minutes at room temperature
T1 construct: full length Wee1A kinase was expressed by baculovirus in insect cells; purchased Invitrogen PV3817; host or cells: insect cells (baculovirus)

[2] = system: Cdk1 phosphorylated on tyrosine 15; assay: pCDK1 Y15 AlphaLISA target engagement assay in ACHN cells; type: cell-based; settings: Homo sapiens, treated for 4 h, 7 to 5000 nM, read-out: TE Weel (ALISA): AlphaLISA CDK1 Tyr15 Phosphorylation EC50
Experimental: (§1) ACHN renal cell carcinoma cell line (ATCC) was cultured in Minimum Essential Medium Eagle supplemented with 10% fetal calf serum (Sigma), 1% Penicillin-Streptomycin and 10 mM HEPES buffer (HyClone). Cell cultures were kept in a humidified incubator at 37° C. and 5% CO2. Cells were routinely tested for Mycoplasma contamination.
For target engagement assessment, quantification of Cdk1 phosphorylated on tyrosine 15 was detected using pCDK1 Y^15 AlphaLISA assay (Perkin Elmer). ACHN cells were seeded into tissue culture treated 96-well plates (VWR) to a density of 20,000 cells per well. 24 h post seeding cells were treated for 4 h with compounds at concentrations ranging from 7 to 5000 nM. Cells were washed with PBS and lysed in 50 μl alphaLISA lysis buffer before freezing at −80° C. 10 μl of the lysate was transferred to 384 well plates and incubated with alphaLISA donor and acceptor beads according to the manufacturer's instructions. Dose response curves and EC50 values were calculated and visualized using GraphPad Prism version 9.

[3] = system: ACHN cells; assay: Cell Titer Glo viability assay in ACHN cells; type: cell-based; settings: Homo sapiens, 144 h, 0.17 to 10,000 nM
Experimental: as §1
ACHN cells were seeded at a density of 400 cells per well in tissue culture treated 384 well plates (Corning Costar). After overnight incubation, cells were treated with drugs at concentrations ranging from 0.17 to 10,000 nM. Viability compared to untreated control was assessed at 144 h using Cell Titer Glo assay 2.0 (Promega).

[4] = system: Cdk1 phosphorylated on tyrosine 15; assay: High-content imaging of pCdk1 Y15 by immunofluorescence in ACHN cells; type: cell-based; settings: Homo sapiens, high-content imaging (IF), 4 h, 7 to 5000 nM, read-out: CDK1 Tyr15 Phosphorylation EC50 (IC50)
How it was run: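 ACHN cells were treated with compounds at 7–5000 nM for 4 h, then fixed, permeabilised and immunostained for pCDK1 Y15, with DAPI as nuclear counterstain. Automated imaging gave the percentage of cells with nuclear pCDK1 Y15 positivity relative to DMSO control. EC50 values came from dose-response curves.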

T1 sequence (P30291 whole entry): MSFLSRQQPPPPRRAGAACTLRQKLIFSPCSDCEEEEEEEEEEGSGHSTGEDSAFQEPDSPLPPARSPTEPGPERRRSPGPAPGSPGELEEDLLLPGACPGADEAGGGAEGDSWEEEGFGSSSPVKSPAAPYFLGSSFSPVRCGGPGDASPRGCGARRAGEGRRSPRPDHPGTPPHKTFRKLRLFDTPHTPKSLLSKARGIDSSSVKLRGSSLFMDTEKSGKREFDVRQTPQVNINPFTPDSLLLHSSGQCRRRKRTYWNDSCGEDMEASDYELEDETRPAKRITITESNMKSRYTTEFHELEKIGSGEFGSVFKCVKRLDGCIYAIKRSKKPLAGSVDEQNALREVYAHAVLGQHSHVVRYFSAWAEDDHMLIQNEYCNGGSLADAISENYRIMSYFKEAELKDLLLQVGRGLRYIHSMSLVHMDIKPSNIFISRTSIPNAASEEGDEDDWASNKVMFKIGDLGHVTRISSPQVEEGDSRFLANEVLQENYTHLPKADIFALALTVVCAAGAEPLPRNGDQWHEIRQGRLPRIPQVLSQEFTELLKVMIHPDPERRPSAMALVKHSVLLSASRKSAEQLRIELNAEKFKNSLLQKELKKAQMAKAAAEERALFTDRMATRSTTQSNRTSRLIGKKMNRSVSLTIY

| Structure (SMILES) | IC50 [1] | EC50 [2] | EC50 [3] | EC50 [4] |
| --- | --- | --- | --- | --- |
| COc1nc(Nc2ccc3c(cnn3C3CCN(C)C3)c2)ncc1C(=O)Nc1c(Cl)cccc1Cl (centres unmarked) [Compound 173] | 10 to 100 nM | > 2500 nM |  |  |
| COc1nc(Nc2ccc(C3CCN(C)CC3)c(C)c2)ncc1C(=O)Nc1cc(N)ccc1C [Compound 171] | 10 to 100 nM | > 2500 nM |  |  |
| COc1nc(Nc2cnn(C)c2)ncc1C(=O)Nc1c(Cl)cccc1Cl [Compound 182] | 10 to 100 nM | > 2500 nM | 1000 to 5000 nM | 100 to 500 nM |
| COc1nc(Nc2ccc3c(cnn3C)c2)ncc1C(=O)Nc1c(Cl)cccc1Cl [Compound 176] | 10 to 100 nM | > 2500 nM |  |  |
| COc1nc(Nc2ccc(C3CCN(C)CC3)c(C#N)c2)ncc1C(=O)Nc1c(Cl)cccc1Cl [Compound 156, 2-((3-cyano-4-(1-methylpiperidin-4-yl)phenyl)amino)-N-(2,6-dichlorophenyl)-4-methoxypyrimidine-5-carboxamide] | ≤ 10 nM | 500 to 1000 nM |  |  |
| COc1nc(Nc2ccc(O[C@H]3CCNC3)c(C)c2)ncc1C(=O)Nc1c(Cl)cccc1Cl [Compound 177] | ≤ 10 nM | > 2500 nM |  |  |
| COc1nc(Nc2ccc(C3(C#N)CCN(C)CC3)c(C)c2)ncc1C(=O)Nc1c(Cl)cccc1Cl [Compound 181] | ≤ 10 nM | ≤ 500 nM |  |  |
| COc1nc(Nc2ccc(OC3CCNCC3)cc2)ncc1C(=O)Nc1c(Cl)cccc1Cl [Compound 179] | ≤ 10 nM | > 2500 nM | 250 to 1000 nM | 100 to 500 nM |
| COc1nc(Nc2ccc(O[C@@H]3CCNC3)c(C)c2)ncc1C(=O)Nc1c(Cl)cccc1Cl [Compound 178] | ≤ 10 nM | 500 to 1000 nM | 250 to 1000 nM | ≤ 100 nM |
| COc1nc(Nc2ccc(OC3CCNCC3)c(C)c2)ncc1C(=O)Nc1c(Cl)cccc1Cl [Compound 180] | ≤ 10 nM | 500 to 1000 nM | 250 to 1000 nM | 100 to 500 nM |

More lines, now with the values ahead:

| IC50 [1] | EC50 [2] | EC50 [3] | EC50 [4] | Structure (SMILES) |
| --- | --- | --- | --- | --- |
| ≤ 10 nM | ≤ 500 nM |  |  | COc1nc(Nc2ccc(O[C@H]3CCN(C)C3)c(C)c2)ncc1C(=O)Nc1c(Cl)ccc(O)c1C [Compound 155, (S)—N-(6-chloro-3-hydroxy-2-methylphenyl)-4-methoxy-2-((3-methyl-4-((1-methylpyrrolidin-3-yl)oxy)phenyl)amino)pyrimidine-5-carboxamide] |
| ≤ 10 nM | ≤ 500 nM | ≤ 250 nM | ≤ 100 nM | COc1nc(Nc2ccc(C3CCNCC3)c(C)c2)ncc1C(=O)Nc1c(Cl)cccc1Cl [Compound 175] |
| ≤ 10 nM | > 2500 nM |  | 100 to 500 nM | COc1nc(Nc2ccc(O[C@H]3CCN(C)C3)c(C)c2)ncc1C(=O)Nc1c(Cl)cccc1Cl [Compound 154, (S)—N-(2,6-dichlorophenyl)-4-methoxy-2-((3-methyl-4-((1-methylpyrrolidin-3-yl)oxy)phenyl)amino)pyrimidine-5-carboxamide] |
| ≤ 10 nM | > 2500 nM | 250 to 1000 nM | 100 to 500 nM | COc1nc(Nc2cnn(C3CCN(C)CC3)c2)ncc1C(=O)Nc1c(Cl)cccc1Cl [Compound 163] |
| ≤ 10 nM | > 2500 nM |  |  | COc1nc(Nc2ccc3c(cnn3CCN(C)C)c2)ncc1C(=O)Nc1c(Cl)cccc1Cl [Compound 174] |
| ≤ 10 nM | 500 to 1000 nM | 250 to 1000 nM | 100 to 500 nM | COc1nc(Nc2ccc(C3CCN(C)CC3)c(C)c2)ncc1C(=O)Nc1c(C)ccc2[nH]ncc12 [Compound 172] |
